Data as given in ChEMBL document CHEMBL4715697, “Synthesis and biological activity of benzamide DNA minor groove binders” (2016).

Experiments:
Type in all cases: functional
NCI-H322M [1] = experiment: Growth inhibition of human NCI-H322M cells assessed as cell growth at 100 uM incubated for 48 hrs by sulforhodamine B assay relative to control; details: read-out: Activity
NCI-H226 [2] = experiment: Growth inhibition of human NCI-H226 cells assessed as cell growth at 0.01 uM incubated for 48 hrs by sulforhodamine B assay relative to control; details: read-out: Activity
NCI-H23 = experiment: Growth inhibition of human NCI-H23 cells incubated for 48 hrs by sulforhodamine B assay
K562 = experiment: Growth inhibition of human K562 cells assessed as cell growth at 1 uM incubated for 48 hrs by sulforhodamine B assay relative to control; details: read-out: Activity
NCI/ADR-RES = experiment: Growth inhibition of human NCI/ADR-RES cells assessed as cell growth at 0.1 uM incubated for 48 hrs by sulforhodamine B assay relative to control; details: read-out: Activity
UACC-257 = experiment: Growth inhibition of human UACC-257 cells assessed as cell growth at 100 uM incubated for 48 hrs by sulforhodamine B assay relative to control; details: read-out: Activity
NCI-H460 [3] = experiment: Growth inhibition of human NCI-H460 cells assessed as cell growth at 1 uM incubated for 48 hrs by sulforhodamine B assay relative to control; details: read-out: Activity
MOLT-4 = experiment: Growth inhibition of human MOLT-4 cells assessed as cell growth at 100 uM incubated for 48 hrs by sulforhodamine B assay relative to control; details: read-out: Activity
A549 = experiment: Growth inhibition of human A549/ATCC cells incubated for 48 hrs by sulforhodamine B assay
TK-10 = experiment: Growth inhibition of human TK-10 cells assessed as cell growth at 100 uM incubated for 48 hrs by sulforhodamine B assay relative to control; details: read-out: Activity
MDA-MB-231 = experiment: Growth inhibition of human MDA-MB-231 cells assessed as cell growth at 0.1 uM incubated for 48 hrs by sulforhodamine B assay relative to control; details: read-out: Activity
DU-145 = experiment: Growth inhibition of human DU-145 cells assessed as cell growth at 0.01 uM incubated for 48 hrs by sulforhodamine B assay relative to control; details: read-out: Activity
NCI-H322M [4] = experiment: Growth inhibition of human NCI-H322M cells assessed as cell growth at 0.1 uM incubated for 48 hrs by sulforhodamine B assay relative to control; details: read-out: Activity
U-251 [5] = experiment: Growth inhibition of human U-251 cells assessed as cell growth at 0.1 uM incubated for 48 hrs by sulforhodamine B assay relative to control; details: read-out: Activity
OVCAR-8 = experiment: Growth inhibition of human OVCAR-8 cells incubated for 48 hrs by sulforhodamine B assay
SF-295 [6] = experiment: Growth inhibition of human SF-295 cells assessed as cell growth at 100 uM incubated for 48 hrs by sulforhodamine B assay relative to control; details: read-out: Activity
NCI-H226 [7] = experiment: Growth inhibition of human NCI-H226 cells assessed as cell growth at 1 uM incubated for 48 hrs by sulforhodamine B assay relative to control; details: read-out: Activity
HCC 2998 [8] = experiment: Growth inhibition of human HCC 2998 cells assessed as cell growth at 0.01 uM incubated for 48 hrs by sulforhodamine B assay relative to control; details: read-out: Activity
NCI-H460 [9] = experiment: Growth inhibition of human NCI-H460 cells incubated for 48 hrs by sulforhodamine B assay
KM12 = experiment: Growth inhibition of human KM12 cells assessed as cell growth at 0.01 uM incubated for 48 hrs by sulforhodamine B assay relative to control; details: read-out: Activity
SK-MEL-28 = experiment: Growth inhibition of human SK-MEL-28 cells assessed as cell growth at 0.01 uM incubated for 48 hrs by sulforhodamine B assay relative to control; details: read-out: Activity
RPMI-8226 = experiment: Growth inhibition of human RPMI-8226 cells assessed as cell growth at 0.01 uM incubated for 48 hrs by sulforhodamine B assay relative to control; details: read-out: Activity
U-251 [10] = experiment: Growth inhibition of human U-251 cells incubated for 48 hrs by sulforhodamine B assay
OVCAR-4 = experiment: Growth inhibition of human OVCAR-4 cells assessed as cell growth at 1 uM incubated for 48 hrs by sulforhodamine B assay relative to control; details: read-out: Activity
NCI-H322M [11] = experiment: Growth inhibition of human NCI-H322M cells assessed as cell growth at 0.01 uM incubated for 48 hrs by sulforhodamine B assay relative to control; details: read-out: Activity
T47D = experiment: Growth inhibition of human T47D cells assessed as cell growth at 0.01 uM incubated for 48 hrs by sulforhodamine B assay relative to control; details: read-out: Activity
NCI-H460 [12] = experiment: Growth inhibition of human NCI-H460 cells assessed as cell growth at 100 uM incubated for 48 hrs by sulforhodamine B assay relative to control; details: read-out: Activity
OVCAR-5 = experiment: Growth inhibition of human OVCAR-5 cells assessed as cell growth at 1 uM incubated for 48 hrs by sulforhodamine B assay relative to control; details: read-out: Activity
Malme-3M = experiment: Growth inhibition of human Malme-3M cells assessed as cell growth at 0.1 uM incubated for 48 hrs by sulforhodamine B assay relative to control; details: read-out: Activity
MDA-MB-468 = experiment: Growth inhibition of human MDA-MB-468 cells assessed as cell growth at 0.1 uM incubated for 48 hrs by sulforhodamine B assay relative to control; details: read-out: Activity
PC-3 = experiment: Growth inhibition of human PC-3 cells incubated for 48 hrs by sulforhodamine B assay
SF-295 [13] = experiment: Growth inhibition of human SF-295 cells assessed as cell growth at 0.01 uM incubated for 48 hrs by sulforhodamine B assay relative to control; details: read-out: Activity
HCC 2998 [14] = experiment: Growth inhibition of human HCC 2998 cells assessed as cell growth at 100 uM incubated for 48 hrs by sulforhodamine B assay relative to control; details: read-out: Activity
A498 = experiment: Growth inhibition of human A498 cells incubated for 48 hrs by sulforhodamine B assay
U-251 [15] = experiment: Growth inhibition of human U-251 cells assessed as cell growth at 1 uM incubated for 48 hrs by sulforhodamine B assay relative to control; details: read-out: Activity
[16] = read-out: LC50 (the source's name)
[17] = read-out: pLC50 (the source's name) (converted)

In the case of `CC(=O)Nc1cc(CO[Si](C)(C)C(C)(C)C)cc(NC(=O)c2ccc(C(=O)Nc3cccc(NC(=O)CCCN(C)C)c3)cc2)c1`, the growth at 100 µM (NCI-H322M [1]) is reported as 74%, the growth at 0.01 µM (NCI-H226 [2]) is reported as 96% and the GI50 (NCI-H23; read-out: GI50) is reported as > 75 µM. The CC50 (NCI-H23; [16]) was > 75 µM, the TGI (NCI-H23; read-out: TGI) was > 75 µM and the GI50 (NCI-H23; read-out: pGI50 (converted)) was > 75.9 µM. For the same compound, the CC50 (NCI-H23; [17]) was > 75.9 µM, the TGI (NCI-H23; read-out: pTGI) was > 75.9 µM and the growth at 1 µM (K562) was 95%. It also gave a growth at 0.1 µM (NCI/ADR-RES) of 97%, a growth at 100 µM (UACC-257) of 81% and a growth at 1 µM (NCI-H460 [3]) of 99%. The growth at 100 µM (MOLT-4) was 98%, the GI50 (A549; read-out: GI50) was > 75 µM and the CC50 (A549; [16]) was > 75 µM. For the same compound, the TGI (A549; read-out: TGI) was > 75 µM, the GI50 (A549; read-out: pGI50 (converted)) was > 75.9 µM and the CC50 (A549; [17]) was > 75.9 µM. The TGI (A549; read-out: pTGI) was > 75.9 µM, the growth at 100 µM (TK-10) was 98% and the growth at 0.1 µM (MDA-MB-231) was 95%. For the same compound, the growth at 0.01 µM (DU-145) was 103%, the growth at 0.1 µM (NCI-H322M [4]) was 95% and the growth at 0.1 µM (U-251 [5]) was 100%. For the same compound, the GI50 (OVCAR-8; read-out: GI50) was > 75 µM, the CC50 (OVCAR-8; [16]) was > 75 µM and the TGI (OVCAR-8; read-out: TGI) was > 75 µM. For the same compound, the GI50 (OVCAR-8; read-out: pGI50 (converted)) was > 75.9 µM, the CC50 (OVCAR-8; [17]) was > 75.9 µM and the TGI (OVCAR-8; read-out: pTGI) was > 75.9 µM. The growth at 100 µM (SF-295 [6]) was 88%, the growth at 1 µM (NCI-H226 [7]) was 92% and the growth at 0.01 µM (HCC 2998 [8]) was 98%. The GI50 (NCI-H460 [9]; read-out: GI50) was > 75 µM, the CC50 (NCI-H460 [9]; [16]) was > 75 µM and the TGI (NCI-H460 [9]; read-out: TGI) was > 75 µM. The GI50 (NCI-H460 [9]; read-out: pGI50 (converted)) was > 75.9 µM, the CC50 (NCI-H460 [9]; [17]) was > 75.9 µM and the TGI (NCI-H460 [9]; read-out: pTGI) was > 75.9 µM. The growth at 0.01 µM (KM12) was 98%, the growth at 0.01 µM (SK-MEL-28) was 98% and the growth at 0.01 µM (RPMI-8226) was 95%. For the same compound, the GI50 (U-251 [10]; read-out: GI50) was > 75 µM, the CC50 (U-251 [10]; [16]) was > 75 µM and the TGI (U-251 [10]; read-out: TGI) was > 75 µM. The GI50 (U-251 [10]; read-out: pGI50 (converted)) was > 75.9 µM, the CC50 (U-251 [10]; [17]) was > 75.9 µM and the TGI (U-251 [10]; read-out: pTGI) was > 75.9 µM. The growth at 1 µM (OVCAR-4) was 100%, the growth at 0.01 µM (NCI-H322M [11]) was 102% and the growth at 0.01 µM (T47D) was 99%. The growth at 100 µM (NCI-H460 [12]) was 89%, the growth at 1 µM (OVCAR-5) was 89% and the growth at 0.1 µM (Malme-3M) was 92%. The growth at 0.1 µM (MDA-MB-468) was 93%, the GI50 (PC-3; read-out: GI50) was > 75 µM and the CC50 (PC-3; [16]) was > 75 µM. For the same compound, the TGI (PC-3; read-out: TGI) was > 75 µM, the GI50 (PC-3; read-out: pGI50 (converted)) was > 75.9 µM and the CC50 (PC-3; [17]) was > 75.9 µM. The TGI (PC-3; read-out: pTGI) was > 75.9 µM, the growth at 0.01 µM (SF-295 [13]) was 98% and the growth at 100 µM (HCC 2998 [14]) was 93%. The LC50 (concentration giving 50% net cell kill) (A498; read-out: LC50) was > 75 µM, the TGI (A498; read-out: TGI) was > 75 µM and the LC50 (concentration giving 50% net cell kill) (A498; read-out: pLC50 (converted)) was > 75.9 µM. The TGI (A498; read-out: pTGI) was > 75.9 µM and the growth at 1 µM (U-251 [15]) was 91%.
